# Experimental data reported in patent US12324839B2, “Testosterone-inducing peptide compounds and associated combinations” (THE ROYAL INSTITUTION FOR THE ADVANCEMENT OF …, priority 2018, dated 2025).
# Square brackets hold non-standard residues; d marks the D form. Peptide text beside a SMILES is read from it.
# How the values were obtained:
# [1] = system: plasma testosterone level in Brown-Norway rats; assay: Oral administration (gavage) of peptides, plasma testosterone; type: in vivo; conditions: for average testosterone levels across doses: gavage ~10, 220, or 420 μg/kg, after two hrs, rats aged 82-131 days; for average testosterone levels: gavage ~10 μg/kg; for testosterone levels: oral gavage ~580 μg/kg
# Method: (§1) Peptides. Peptides were obtained from CanPeptide (Montreal, Quebec) with >95% purity. All peptides were dissolved in molecular grade, sterile double distilled water to obtain a 1 mM stock solution and stored at −20° C. Peptides used for oral screenings were prepared from 1 mM peptide stock and diluted in sterile tap water in a total volume of 1 mL. Peptides used for pharmacokinetic experiments were diluted at 10 mg/ml using sterile tap water. Some of the peptides were chemically modified after synthesis. The following table summarizes the peptides that have been tested:
# (§2) Animal handling, blood collections, surgical procedures, and oral administration of peptides. Brown-Norway rats aged 22-28, 36-42, or 50-56 days-old were purchased from Charles River Laboratories (Senneville, Quebec) and aged until needed. Rats were kept on a 12 L/12 D day cycle with lights on at 7 AM and access to food and water ad libitum.
# (§3) For all experiments, plasma samples were obtained via percutaneous jugular puncture and collected in EDTA KE/1.3 tubes (Sarstedt, Numbrecht, Germany, Cat #5072511). Blood collection time points are indicated in each figure legend. Samples were centrifuged at 1 300 RCF for 10 min, and the plasma was stored in 2 mL Wheaton glass vials (Fisher Scientific, Hampton, NH, Cat #03 337 21A) and kept at −20° C. until needed.
# (§4) For all oral experiments, administration via gavage began between 8:30-8:50 am with a 3-minute delay between each rat. Animals used for pharmacokinetic studies were fasted for 4 hrs before starting gavage at 1 pm with a 3-minute delay between each rat.
# (§5) Plasma steroid measurements. Testosterone levels were measured using Cayman (Ann Arbor, MI) EIA kit Cat #582701, and corticosterone levels were measured using Cayman EIA kit Cat #501320. All samples were measured in duplicate according to the manufacturer's instructions. Samples were diluted until the average control levels fitted the middle of the standard curve. The number of animals used for each experiment is noted in the corresponding figure legend.
# [2] = Peptide stability in plasma; type: in vitro ADME, Brown-Norway rats; conditions: for half-life in plasma (rank order): 4 μM peptide (KVSQ 12.5 μM) in 100 μL rat plasma, 37° C., 1-120 minutes; for stability / degradation in plasma: in vitro rat plasma incubation
# Method: Peptide stability in plasma, oral pharmacokinetics, and quantification. For peptide stability experiments, plasma from Brown-Norway rats age 90-140 days was collected and stored at −20° C. until further use. The plasma was thawed, spun at 12 000 RPM for 10 min, and kept at 4° C. 4 μM of the various peptides were incubated with 100 μL of plasma that was warmed at 37° C. for 10 min before use. After 1, 15, 30, 60, 90 or 120 minutes, the plasma/peptide samples were crashed with 300 μL of 100% methanol, spun at 14 000 RPM for 10 min, and the supernatant collected. The methanol in the supernatant was evaporated and the samples were re-extracted. The final pellet was solubilized in 5 μL methanol followed by the addition of 100 μL of sterile double distilled water. The extracted samples were transferred to plastic tubes and placed in the autoloader of the mass spectrometer.
# (§6) The analytical instrumentation consisted of a Thermo-Scientific ISQ Quantiva Triple Quadrupole Mass Spectrometer (QQQ), incorporating a heated electrospray ionization (HESI) source, and a Thermo-Scientific UltiMate™ 3000 UHPLC system (including, UltiMate™ 3000 RS autosampler). Analytical conditions were developed using a reference standard in a solution containing 5 μM of the corresponding peptide. The chromatography was resolved by isocratic elution of a binary solvent system incorporating (A) 0.1% Formic Acid (aq) and (B) ACN+0.1% FA and using an Agilent Eclipse Plus™ C18 analytical column (100 mm×2.1 mm ID, 1.8 μm particle). A 5 μL injection volume and solvent flow rate of 150 μL/min were used. The MS/MS acquisition time was 7 min and total run time was 8.3 min/injection. The triple Quadrupole MS/MS instrumentation conditions were as follows: the HESI source voltage was 3200 V, the sheath gas […], auxiliary gas 20 L/min, sweep gas 2.0 L/min, the ion transfer temperature was 350° C., the vaporizer temperature was 350° C., the CID gas was 1.5 (mTorr) and the dwell time was 100 msec. The Q1 Resolution (FWHM) was 0.4 (unitless) and the Q3 resolution (FWHM) was 0.7 (unitless). The instrument ran in a selected reaction monitoring (SRM), positive ion detection mode at various collision energies (CE) for the following mass transitions: • Ac-RITQdS-NH2: p84 (m/z 645→m/z 295, m/z 396) • RdVTQ: p72 (m/z 503→m/z 211). • Ac-RdITQ-NH2: p87 (m/z 558→m/z 391, m/z 267) • RVTQ: p64 (m/z 503→m/z 211; m/z 503→m/z 357 and m/z 503→m/z 256) • KVSQ: p95 (m/z 461→m/z 129) and (m/z 461→m/z 234)
# [3] = system: plasma testosterone level in Brown-Norway rats; assay: Subcutaneous osmotic pump infusion of tetrapeptides, plasma testosterone (Example I); type: in vivo
# Method: Osmotic pumps. Model 2006 osmotic pumps, infusing 0.15 μL/hr, were purchased from Alzet (Cupertino, CA). The peptide concentration loaded into the pumps was adjusted to deliver the doses indicated in each figure. The pump infusion rates varied by production lot and were adjusted accordingly. Pumps were loaded 24 hrs prior to surgical implantation under sterile conditions and were kept at 37° C. in PBS.
# as §2, §3
# Brown-Norway rats aged ˜29 day-old were implanted with osmotic infusion pumps in the interscapular region under general anesthesia with isoflurane following antisepsis using iodine. The surgical wound was closed with two to three staples that were removed a week after the surgery. Subcutaneous carprofen (Zoetis, Parsippany, NJ) was given before the surgical procedure and in the following two days for pain management.
# as §5
# [4] = system: plasma corticosterone level in Brown-Norway rats; assay: Oral administration (gavage) of peptides, plasma corticosterone; type: in vivo; conditions: gavage with increasing concentrations, 2 hrs
# Method: as §1, §2
# For all experiments, plasma samples were obtained via percutaneous jugular puncture and collected in EDTA KE/1.3 tubes (Sarstedt, Numbrecht, Germany, Cat #5072511). […]
# Plasma steroid measurements. Testosterone levels were measured using Cayman (Ann Arbor, MI) EIA kit Cat #582701, and corticosterone levels were measured using Cayman EIA kit Cat #501320. All samples were measured in duplicate according to the manufacturer's instructions. […]
# [5] = system: plasma testosterone level in Brown-Norway rats; assay: Subcutaneous osmotic pump infusion of TV159-172 derivatives and N163-166, plasma testosterone (Example II); type: in vivo; conditions: 309 ng/kg/day, 7 days after implantation
# Method: (§7) Animal handling, serum, plasma, and intratesticular sample collection. Brown-Norway rats aged 36-42 days old were purchased from Charles River and aged until ˜60 days old. Rats were kept on a 12 L/12 D day cycle with lights on at 7 AM and had access to food and water ad libitum.
# (§8) Jugular samples were collected via percutaneous puncture and samples were collected in EDTA coated tubes (plasma) and centrifuged at 1,300 RCF for 10 min and stored in 2 mL Wheaton glass vials (Fisher Scientific, Hampton, NH, Cat #03 337 21A) and kept at −20° C. Animals were handled according to protocols approved by the McGill University Animal Care and Use Committee, which included standard operating procedures for the amount and frequency of blood sample collections.
# (§9) Hormone measurements. Testosterone levels were measured using Cayman (Ann Arbor, MI) EIA kit Cat #582701 and corticosterone levels were measured using Cayman EIA kit Cat #501320. Plasma fluid samples were diluted until controls fitted the middle of the standard curve used.
# (§10) Osmotic pumps. Alzet 2006 osmotic pumps were purchased from Alzet (Cupertino, CA) with an infusion rate of 0.15 μL/hr. The peptide concentration loaded into the pumps accounted for weight gain at the time of collection and was adjusted to deliver the doses indicated in each figure. The pump infusion rates varied by production lot and were adjusted accordingly. […]
# [6] = Oral pharmacokinetics after single oral dose; type: in vivo, Brown-Norway rats; conditions: single oral dose of 10 mg peptide, gavage
# Method: as §4
# For oral pharmacokinetic experiments, jugular blood samples were collected following a single oral dose of 10 mg peptide in 1 ml of vehicle after 5, 15, 30, 45, 60, 90, and 120 minutes. Protein inhibitor cocktail (ROCHE, cOmplete protein inhibitors, Cat #11697498001), which was added into the EDTA collection tubes, was used for KVSQ and RVTQ peptides. Plasma was immediately extracted, and 100 μL of plasma were crashed with 300 μL of 100% methanol, spun at 14 000 RPM for 10 min, and the supernatant harvested. Re-extraction of the precipitant and solubilization of the pellet were as described above.
# as §6, with “The instrument ran in a selected reaction monitoring (SRM), positive ion detection mode at various collision energies (CE) for the following mass transitions: • Ac-RITQdS-NH2: p84 (m/z 645→m/z 295, m/z 396) • RdVTQ: p72 (m/z 503→m/z 211). • Ac-RdITQ-NH2: p87 (m/z 558→m/z 391, m/z 267) • RVTQ: p64 (m/z 503→m/z 211; m/z 503→m/z 357 and m/z 503→m/z 256) • KVSQ: p95 (m/z 461→m/z 129) and (m/z 461→m/z 234)” left out
# [7] = system: plasma corticosterone level in Brown-Norway rats; assay: Subcutaneous osmotic pump infusion of TV159-172 derivatives and N163-166, plasma corticosterone (Example II); type: in vivo; conditions: 40 days after implantation
# Method: as §7, §8, §9, §10
# [8] = samples at age 54 days (first round), ~370 ng/kg/day
molecule,measurement,setting,value
CC[C@@H](C)[C@@H](NC(=O)[C@H](CCCNC(=N)N)NC(C)=O)C(=O)N[C@H](C(=O)N[C@@H](CCC(N)=O)C(N)=O)[C@@H](C)O [Ac-RdITQ-NH2] (Ac-R[dI]TQ-NH2),average testosterone levels across doses,[1],increased average testosterone levels
same,average testosterone levels,"[1]; third screening, 2 hrs","increased, although not significantly"
same,half-life in plasma (rank order),[2],Ac-RITQdS-NH2>RdVTQ>Ac-RdITQ-NH2>RITQ>RVTQ>KVSQ
Ac-KdITQ-NH2,average testosterone levels,"[1]; third screening, 2 hrs","increased, although not significantly"
CC[C@H](C)[C@H](NC(=O)[C@@H](N)CCCNC(=N)N)C(=O)N[C@H](C(=O)N[C@@H](CCC(N)=O)C(=O)O)[C@@H](C)O [RITQ] (H-RITQ-OH),"testosterone levels, dose-response","[1]; gavage 10 μg/kg, 2 hrs",significant increase
same,"testosterone levels, dose-response","[1]; gavage ~220 μg/kg, 2 hrs",non-significant decrease
same,"testosterone levels, dose-response","[1]; gavage ~520 μg/kg, 2 hrs",significant increase
same,average testosterone levels,"[1]; third screening, 2 hrs","increased, although not significantly"
same,steroid (testosterone) levels,"[1]; third screening, gavage ~220 μg/kg, 2 hrs",decrease in steroid levels
same,half-life in plasma (rank order),[2],Ac-RITQdS-NH2>RdVTQ>Ac-RdITQ-NH2>RITQ>RVTQ>KVSQ
same,stability / degradation in plasma,[2],rapid time-dependent degradation
same,circulating testosterone levels,[3]; [8],non-significant increase
same,circulating testosterone levels,"[3]; samples at age 65 days (second round), ~330 ng/kg/day",significant increase
same,"corticosterone levels, dose-response",[4],no corresponding significant changes
KITQ,circulating testosterone levels,[3]; [8],significant increase
CC(C)[C@H](NC(=O)[C@@H](N)CCCNC(=N)N)C(=O)N[C@H](C(=O)N[C@@H](CCC(N)=O)C(=O)O)[C@@H](C)O [RVTQ] (H-RVTQ-OH),testosterone levels,[1]; 3 hrs sampling time,did not show an effect
same,testosterone levels,[5],significantly increased
same,half-life in plasma (rank order),[2],Ac-RITQdS-NH2>RdVTQ>Ac-RdITQ-NH2>RITQ>RVTQ>KVSQ
same,stability / degradation in plasma,[2],rapid time-dependent degradation
same,increase in plasma testosterone levels,"[3]; 377 ng/kg/d, ~54 day-old rats, vs water",two-fold
same,circulating peptide levels (detection),[6],not detected
same,corticosterone levels,[7]; 23 ng/kg/day,decreased
same,corticosterone levels,[7]; treatment inducing testosterone formation (309 ng/kg/day),not affected
CC(C)[C@@H](NC(=O)[C@@H](N)CCCNC(=N)N)C(=O)N[C@H](C(=O)N[C@@H](CCC(N)=O)C(=O)O)[C@@H](C)O [RdVTQ] (H-R[dV]TQ-OH),"testosterone levels, dose-response","[1]; gavage 10 μg/kg, 2 hrs",trend to increase
same,"testosterone levels, dose-response","[1]; gavage 800 μg/kg, 2 hrs",significant increases
same,"testosterone levels, dose-response","[1]; gavage ~400 μg/kg, 2 hrs",significant increases
same,average testosterone levels across doses,[1],increased average testosterone levels
same,"average testosterone levels, dose-response","[1]; gavage, all doses tested, 2 hrs",increased the average testosterone levels at all doses tested
same,average testosterone levels,"[1]; third screening, 2 hrs","increased, although not significantly"
same,half-life in plasma (rank order),[2],Ac-RITQdS-NH2>RdVTQ>Ac-RdITQ-NH2>RITQ>RVTQ>KVSQ
same,"corticosterone levels, dose-response",[4],no corresponding significant changes
RVTQdS-NH2,testosterone levels,[1]; 2 hr post-treatment,best significant increase in testosterone levels
same,testosterone levels,[1]; 3 hrs sampling time,significantly increased testosterone levels
CC(C)[C@H](NC(=O)[C@@H](N)CCCCN)C(=O)N[C@@H](CO)C(=O)N[C@@H](CCC(N)=O)C(=O)O [KVSQ] (H-KVSQ-OH),average testosterone levels across doses,[1],increased average testosterone levels
same,average testosterone levels,"[1]; third screening, 2 hrs","increased, although not significantly"
same,half-life in plasma (rank order),[2],Ac-RITQdS-NH2>RdVTQ>Ac-RdITQ-NH2>RITQ>RVTQ>KVSQ
same,stability / degradation in plasma,[2],rapid degradation
same,circulating peptide levels (detection),[6],not detected
CC[C@H](C)[C@H](NC(=O)[C@H](CCCNC(=N)N)NC(C)=O)C(=O)N[C@H](C(=O)N[C@@H](CCC(N)=O)C(=O)N[C@H](CO)C(N)=O)[C@@H](C)O [Ac-RITQdS-NH2] (Ac-RITQ[dS]-NH2),average testosterone levels across doses,[1],increased average testosterone levels
same,average testosterone levels,"[1]; third screening, 2 hrs","increased, although not significantly"
same,half-life in plasma (rank order),[2],Ac-RITQdS-NH2>RdVTQ>Ac-RdITQ-NH2>RITQ>RVTQ>KVSQ
same,stability / degradation in plasma,[2],most stable peptide
same,Tmax,"[6]; Brown-Norway, rat, plasma, read-out: time to peak concentration in blood (converted)",~15 min
